Patent US11433071B2, “Heterocyclylamines as PI3K inhibitors” (Incyte Corporation, priority 2011, dated 2022)

Molecular target: PI3Kδ (p110δ/p85α) (Homo sapiens (Human), UniProt O00329)
Assay: PI3Kδ scintillation proximity assay (Example A3)
Assay type: biochemical
Settings: assay not given
Experimental: [γ-^33P]ATP (10 mCi/mL) was purchased from Perkin-Elmer (Waltham, Mass.). […] PI3Kδ (p110δ/p85α) was purchased from Millipore (Bedford, Mass.). ATP, MgCl2, DTT, EDTA, MOPS and CHAPS were purchased from Sigma-Aldrich (St. Louis, Mo.). Wheat Germ Agglutinin (WGA) YSi SPA Scintillation Beads was purchased from GE healthcare life sciences (Piscataway, N.J.).
The kinase reaction was conducted in polystyrene 384-well matrix white plate from Thermo Fisher Scientific in a final volume of 25 μL. Inhibitors were first diluted serially in DMSO and added to the plate wells before the addition of other reaction components. The final concentration of DMSO in the assay was 0.5%. The PI3K assays were carried out at room temperature in 20 mM MOPS, pH 6.7, 10 mM MgCl2, 5 mM DTT and CHAPS 0.03%. Reactions were initiated by the addition of ATP, the final reaction mixture consisted of 20 μM PIP2, 20 μM ATP, 0.2 μCi [γ-^33P] ATP, 4 nM PI3Kδ. […] 25 mM EDTA, 400 µM ATP. The final concentration of SPA beads was 1.0 mg/mL. After the plate sealing, plates were shaken overnight at room temperature and centrifuged at 1800 rpm for 10 minutes, the radioactivity of the product was determined by scintillation counting on Topcount (Perkin-Elmer). IC50 determination was performed by fitting the curve of percent control activity versus the log of the inhibitor concentration using the GraphPad Prism 3.0 software.

Sequence of PI3Kδ (p110δ/p85α) (O00329 whole entry): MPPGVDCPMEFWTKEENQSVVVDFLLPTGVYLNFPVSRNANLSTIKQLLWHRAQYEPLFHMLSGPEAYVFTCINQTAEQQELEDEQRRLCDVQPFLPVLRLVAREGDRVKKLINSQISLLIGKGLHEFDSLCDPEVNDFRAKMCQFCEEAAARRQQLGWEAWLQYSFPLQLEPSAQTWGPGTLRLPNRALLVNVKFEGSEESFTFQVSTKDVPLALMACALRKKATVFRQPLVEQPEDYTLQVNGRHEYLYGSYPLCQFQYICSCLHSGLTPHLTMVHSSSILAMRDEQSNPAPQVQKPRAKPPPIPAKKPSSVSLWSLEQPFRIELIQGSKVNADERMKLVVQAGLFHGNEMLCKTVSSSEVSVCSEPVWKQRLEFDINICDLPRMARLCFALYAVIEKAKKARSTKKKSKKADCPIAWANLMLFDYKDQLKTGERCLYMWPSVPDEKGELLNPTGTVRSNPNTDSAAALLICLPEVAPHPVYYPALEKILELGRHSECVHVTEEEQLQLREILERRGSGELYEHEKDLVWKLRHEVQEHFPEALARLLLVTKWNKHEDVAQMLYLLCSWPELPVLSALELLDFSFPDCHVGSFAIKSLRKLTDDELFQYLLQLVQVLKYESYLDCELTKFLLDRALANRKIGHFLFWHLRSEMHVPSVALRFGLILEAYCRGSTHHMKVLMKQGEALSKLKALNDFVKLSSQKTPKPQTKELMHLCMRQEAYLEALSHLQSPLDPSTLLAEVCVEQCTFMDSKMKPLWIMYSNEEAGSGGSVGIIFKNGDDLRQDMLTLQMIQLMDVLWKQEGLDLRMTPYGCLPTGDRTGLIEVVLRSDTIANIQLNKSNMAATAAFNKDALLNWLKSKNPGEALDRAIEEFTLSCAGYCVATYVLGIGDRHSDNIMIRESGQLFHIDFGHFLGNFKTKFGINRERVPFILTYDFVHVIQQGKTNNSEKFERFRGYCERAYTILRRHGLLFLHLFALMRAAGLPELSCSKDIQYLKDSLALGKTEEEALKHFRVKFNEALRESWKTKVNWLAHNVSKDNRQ
Sequence of PI3Kδ (p110δ/p85α) (P27986 whole entry partner): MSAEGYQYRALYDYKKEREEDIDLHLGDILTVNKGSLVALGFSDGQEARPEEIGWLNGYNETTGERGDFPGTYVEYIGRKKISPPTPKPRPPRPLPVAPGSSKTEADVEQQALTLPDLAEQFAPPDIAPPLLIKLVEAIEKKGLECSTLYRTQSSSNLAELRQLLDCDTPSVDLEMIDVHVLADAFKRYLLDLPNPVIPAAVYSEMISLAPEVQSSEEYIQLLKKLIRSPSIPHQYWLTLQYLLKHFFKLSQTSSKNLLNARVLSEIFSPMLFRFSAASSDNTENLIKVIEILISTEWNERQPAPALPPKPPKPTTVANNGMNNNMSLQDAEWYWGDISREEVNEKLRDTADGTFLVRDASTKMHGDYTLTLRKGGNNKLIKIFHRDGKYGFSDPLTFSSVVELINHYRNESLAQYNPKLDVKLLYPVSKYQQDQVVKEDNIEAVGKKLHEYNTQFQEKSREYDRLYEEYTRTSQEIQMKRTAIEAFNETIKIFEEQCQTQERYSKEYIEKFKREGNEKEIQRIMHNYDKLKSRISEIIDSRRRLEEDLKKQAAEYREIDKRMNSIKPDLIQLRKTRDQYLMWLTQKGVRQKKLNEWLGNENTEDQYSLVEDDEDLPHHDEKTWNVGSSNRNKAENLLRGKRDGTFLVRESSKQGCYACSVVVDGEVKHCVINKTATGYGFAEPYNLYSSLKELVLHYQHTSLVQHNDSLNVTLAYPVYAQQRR

- relative activity among the four separated stereoisomers (peaks 1-4): most active enantiomer
SMILES: CCOc1c(C(C)n2nc(C)c3c(N)ncnc32)cc(Cl)c(F)c1C1CNC(=O)O1 (stereo not shown) [Example 357, 5-{3-[1-(4-amino-3-methyl-1H-pyrazolo[3,4-d]pyrimidin-1-yl)ethyl]-5-chloro-2-ethoxy-6-fluorophenyl}-1,3-oxazolidin-2-one]
